According to patent US6737383B1, “Herbicidal oxadiazolidines” (priority 1999, dated 2004):

Columns and labels:
velvetleaf = experiment: Test B pre/postemergence velvetleaf; assay type: in vivo, Abutilon theophrasti
Procedure, shortened: (§1)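 Herbicidal effect was estimated by eye on a ten-point control scale after plants spent twelve to sixteen days in a greenhouse following soil or foliar treatment. Foliar sprays targeted plants at one to four leaves; all doses were formulated in a non-phytotoxic solvent with surfactant.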

surinam grass = experiment: Test B pre/postemergence surinam grass; assay type: in vivo, Brachiaria decumbens
Procedure, shortened: as §1

wild oat = experiment: Test B pre/postemergence wild oat; assay type: in vivo, Avena fatua
Procedure, shortened: as §1

morningglory = experiment: Test B pre/postemergence morningglory; assay type: in vivo, Ipomoea hederacea
Procedure, shortened: as §1

corn = experiment: Test B pre/postemergence corn; assay type: in vivo, Zea mays
Procedure, shortened: as §1

giant foxtail = experiment: Test B pre/postemergence giant foxtail; assay type: in vivo, Setaria faberii
Procedure, shortened: as §1

rape = experiment: Test B pre/postemergence rape; assay type: in vivo, Brassica napus
Procedure, shortened: as §1

sugar beet = experiment: Test B pre/postemergence sugar beet; assay type: in vivo, Beta vulgaris
Procedure, shortened: as §1

pigweed = experiment: Test B pre/postemergence pigweed; assay type: in vivo, Amaranthus retroflexus
Procedure, shortened: as §1

soybean = experiment: Test B pre/postemergence soybean; assay type: in vivo, Glycine max
Procedure, shortened: as §1

smallflower flatsedge = experiment: Test B flood test smallflower flatsedge; assay type: in vivo, Cyperus difformis; conditions: for S. Flatsedge plant response rating: scale of 0 to 10 where 0 is no effect and 10 is complete control
Procedure, shortened: (§2)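 Each value is a visual injury score relative to controls, with 10 meaning complete control and 0 no effect. Evaluation took place twelve to sixteen days after the 2-leaf-stage plants were treated and kept in the greenhouse.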

cocklebur = experiment: Test B pre/postemergence cocklebur; assay type: in vivo, Xanthium strumarium
Procedure, shortened: as §1

rice = experiment: Test B flood test rice; assay type: in vivo, Oryza sativa; conditions: for Rice plant response rating: scale of 0 to 10 where 0 is no effect and 10 is complete control
Procedure, shortened: as §2

duck salad = experiment: Test B flood test duck salad; assay type: in vivo, Heteranthera limosa; conditions: for Plant response rating, Ducksalad: scale 0 to 10, 0 is no effect, 10 is complete control; for Ducksalad plant response rating: scale of 0 to 10 where 0 is no effect and 10 is complete control
Procedure, shortened: as §2

wheat = experiment: Test B pre/postemergence wheat; assay type: in vivo, Triticum aestivum
Procedure, shortened: as §1

bamyardgrass = experiment: Test B flood test barnyardgrass; assay type: in vivo, Echinochloa crus-galli; conditions: for Plant response rating, Barnyardgrass: scale 0 to 10, 0 is no effect, 10 is complete control; for Barnyardgrass plant response rating: scale of 0 to 10 where 0 is no effect and 10 is complete control
Procedure, shortened: as §2

[1] = Postemergence, Rate 250 g/ha, scale 0 to 10, 0 is no effect, 10 is complete control
[2] = Postemergence, Rate 500 g/ha, scale of 0 to 10 where 0 is no effect and 10 is complete control
[3] = Preemergence, Rate 62 g/ha, scale 0 to 10 (0 no effect, 10 complete control)
[4] = Preemergence, Rate 125 g/ha, scale of 0 to 10 where 0 is no effect and 10 is complete control
[5] = Preemergence, Rate 250 g/ha, scale 0 to 10, 0 is no effect, 10 is complete control
[6] = Preemergence, Rate 500 g/ha, scale 0 to 10, 0 is no effect, 10 is complete control
[7] = Rate 62 g/ha, Postemergence, scale of 0 to 10 where 0 is no effect and 10 is complete control
[8] = Postemergence, Rate 125 g/ha, scale 0 to 10, 0 is no effect, 10 is complete control
[9] = Postemergence section (flood test species), Rate 500 g/ha
[10] = Rate 62 g/ha, Postemergence (flood test species)
[11] = flood test species, listed under Postemergence, Rate 250 g/ha, scale 0 to 10, 0 is no effect, 10 is complete control
[12] = Postemergence (flood test), Rate 125 g/ha
[13] = flood test species, listed under Postemergence, Rate 250 g/ha

CC(=O)C(C)n1c(=O)on(C(=O)N(c2ccc(F)cc2)C(C)C)c1=O (stereo not shown) [Compound 400]
1: Soybean plant response rating (soybean; [7])
0: Plant response rating, Velvetleaf (velvetleaf; [1]) | Velvetleaf plant response rating (velvetleaf; [2]) | Plant response rating, Velvetleaf (velvetleaf; [3]) | Plant response rating, Velvetleaf (velvetleaf; [4]) | Velvetleaf plant response rating (velvetleaf; [5]) | Velvetleaf plant response rating (velvetleaf; [7]) | Plant response rating, B. signalgrass (surinam grass; [3]) | Plant response rating, B. signalgrass (surinam grass; [4]) | B. signalgrass plant response rating (surinam grass; [7]) | Wild oats plant response rating (wild oat; [2]) | Plant response rating, Wild oats (wild oat; [3]) | Plant response rating, Wild oats (wild oat; [4]) | Wild oats plant response rating (wild oat; [5]) | Wild oats plant response rating (wild oat; [6]) | Wild oats plant response rating (wild oat; [7]) | Plant response rating, Morningglory (morningglory; [3]) | Plant response rating, Morningglory (morningglory; [4]) | Morningglory plant response rating (morningglory; [5]) | Morningglory plant response rating (morningglory; [6]) | Morningglory plant response rating (morningglory; [7]) | Plant response rating, Corn (corn; [8]) | Plant response rating, Corn (corn; [1]) | Corn plant response rating (corn; [2]) | Plant response rating, Corn (corn; [3]) | Plant response rating, Corn (corn; [4]) | Corn plant response rating (corn; [7]) | Plant response rating, Rape (rape; [1]) | Rape plant response rating (rape; [2]) | Plant response rating, Rape (rape; [3]) | Plant response rating, Rape (rape; [4]) | Rape plant response rating (rape; [5]) | Rape plant response rating (rape; [6]) | Rape plant response rating (rape; [7]) | Plant response rating, Sugarbeets (sugar beet; [1]) | Sugarbeets plant response rating (sugar beet; [2]) | Plant response rating, Sugarbeets (sugar beet; [3]) | Plant response rating, Sugarbeets (sugar beet; [4]) | Sugarbeets plant response rating (sugar beet; [7]) | Plant response rating, Redroot pigweed (pigweed; [1]) | Redroot pigweed plant response rating (pigweed; [2]) | Redroot pigweed plant response rating (pigweed; [7]) | Plant response rating, Soybean (soybean; [3]) | Plant response rating, Soybean (soybean; [4]) | Soybean plant response rating (soybean; [5]) | Soybean plant response rating (soybean; [6]) | S. Flatsedge plant response rating (smallflower flatsedge; [9]) | S. Flatsedge plant response rating (smallflower flatsedge; [10]) | Plant response rating, S. Flatsedge (smallflower flatsedge; [11]) | Plant response rating, Cocklebur (cocklebur; [8]) | Plant response rating, Cocklebur (cocklebur; [1]) | Cocklebur plant response rating (cocklebur; [2]) | Plant response rating, Cocklebur (cocklebur; [3]) | Plant response rating, Cocklebur (cocklebur; [4]) | Cocklebur plant response rating (cocklebur; [5]) | Cocklebur plant response rating (cocklebur; [6]) | Cocklebur plant response rating (cocklebur; [7]) | Rice plant response rating (rice; [9]) | Rice plant response rating (rice; [10]) | Plant response rating, Rice (rice; [11]) | Plant response rating, Ducksalad (duck salad; [12]) | Ducksalad plant response rating (duck salad; [9]) | Ducksalad plant response rating (duck salad; [10]) | Plant response rating, Ducksalad (duck salad; [13]) | Wheat plant response rating (wheat; [2]) | Plant response rating, Wheat (wheat; [3]) | Plant response rating, Wheat (wheat; [4]) | Wheat plant response rating (wheat; [5]) | Wheat plant response rating (wheat; [6]) | Wheat plant response rating (wheat; [7]) | Plant response rating, Barnyardgrass (bamyardgrass; [12]) | Barnyardgrass plant response rating (bamyardgrass; [9]) | Barnyardgrass plant response rating (bamyardgrass; [10]) | Plant response rating, Barnyardgrass (bamyardgrass; [13])
2: Velvetleaf plant response rating (velvetleaf; [6]) | Plant response rating, B. signalgrass (surinam grass; [8]) | B. signalgrass plant response rating (surinam grass; Preemergence, Rate 250 g/ha, scale of 0 to 10 where 0 is no effect and 10 is complete control) | Corn plant response rating (corn; [5]) | Corn plant response rating (corn; [6]) | Sugarbeets plant response rating (sugar beet; [5])
6: Morningglory plant response rating (morningglory; [2]) | Redroot pigweed plant response rating (pigweed; [5]) | Redroot pigweed plant response rating (pigweed; [6])
4: B. signalgrass plant response rating (surinam grass; [2]) | B. signalgrass plant response rating (surinam grass; Preemergence, Rate 500 g/ha, scale of 0 to 10 where 0 is no effect and 10 is complete control) | Sugarbeets plant response rating (sugar beet; [6]) | Plant response rating, Redroot pigweed (pigweed; [4]) | Plant response rating, Soybean (soybean; [1]) | Soybean plant response rating (soybean; [2])
5: Giant foxtail plant response rating (giant foxtail; [7])
9: Plant response rating, Giant foxtail (giant foxtail; [1]) | Giant foxtail plant response rating (giant foxtail; [2]) | Plant response rating, Giant foxtail (giant foxtail; [3]) | Plant response rating, Giant foxtail (giant foxtail; [4])
10: Giant foxtail plant response rating (giant foxtail; [5]) | Giant foxtail plant response rating (giant foxtail; [6])
8: Plant response rating, Giant foxtail (giant foxtail; [8])
3: Plant response rating, B. signalgrass (surinam grass; [1]) | Plant response rating, Morningglory (morningglory; [1]) | Plant response rating, Redroot pigweed (pigweed; [3])
